According to patent publication US5514662A, “Use of amphotericin B derivatives as protease inhibitors” (priority 1991, dated 1996):

Key:
PBMCs = assay: Cytotoxicity on PBMCs; format: cell-based, human; settings: concentrations up to 10^-3 M
HIV (cellular viraemia) = assay: Cellular viraemia of AIDS patients' lymphocytes (p24 in supernatants); format: cell-based
Description: Lymphocytes from AIDS patients (<200CD4) are isolated on a Ficoll gradient using heparinised blood. The cells are taken up in RPMI 1640 medium containing antibiotics, 10 U/ml of recombinant IL2 (Boeringher) and anti-interferon alpha serum (anti-IFNα, Sigma) plus 10% of foetal calf serum. The cells are cultured in 24-well plates in an amount of 5×10^5 cells per well for the first concentration and then subjected to 5 fold serial dilutions in the same medium. Half of the medium is replaced twice weekly. Every week, 3×10^5 fresh allogeneic PBMCs, derived from healthy donors, are added to the cultures. The cultures are kept for 28 days in the presence of varying concentrations of DABF-AmB. Vital production is measured weekly by assaying the protein p24 in the supernatants. Each culture and each assay are carried out in duplicate.
The symbols (-) denote that the amount of p24 detected is at least 95% less than the values obtained in the untreated control cultures. […] The results obtained in the LOU patient indicates either a resistance of the virus to the product, or a too high initial viral content. These experiments made it possible to evaluate the IC50 for DABF-AmB at between 1 and 5 μM for the different viral isolates (IC50=Concentrationof the product inhibiting 50% of the p24 titer in the culture supernatants, for a patient cells dilution corresponding to a viral content equivalent to 10TCID50.

viral antigen p24 = assay: Secretion of p24 in HIV-1 infected PBMCs; format: cell-based; settings: Human immunodeficiency virus 1, PBMC, read-out: inhibition of synthesis of p24
Description: The T cells (Jurkat and CEM) used are very permissive to HIV infection. They are cultured in RPMI 1640 medium supplemented with 10% foetal calf serum, 2 mM of glutamine and a mixture of penicillin and streptomycin. The peripheral blood mononuclear cells are obtained from blood from healthy donors, isolated on a Ficoll Hypaque gradient and stimulated with 10 μg/ml of phytohaemagglutinin A (PHA), for two days, in RPMI 1640 medium supplemented, prior to the infection by HIV, with amikacin and vancomycin (10 mg/ml), polybrene (1 mg/ml) and anti-interferon gamma serum (5 U/ml). After infection, the PBMCs are cultured (10^5 per well) in flat-bottomed 96-well plates in the same RPMI 1640 medium (200 μl per well).
The PBMCs cells (2×10^6 /ml) are infected with the same viruses and under the same conditions as the Jurkat or CEM cells. […]
The viral antigen p24 was quantified in the infected-cell supernatant by radioimmunological assay using the procedure recommended by the manufacturer (ABBOTT, Diagnostics Division).
PBMCs isolated from healthy individuals are infected with HIV-1. The production of antigen p24 as well as the reverse transcriptase activity can be detected in the supernatants of cultures infected 3 days after the infection. […]
The effect of DABF-AmB on the reverse transcriptase activity and on the secretion of p24 is evaluated on the 6th day.

HeLa-Ohio cells = assay: Cytotoxicity in HeLa-Ohio cells; format: cell-based, human; settings: 20 μM for 4 weeks
kallicrein = assay: Activity of DABF-AmB on various proteases: kallicrein; format: biochemical; settings: 1 μM, results not shown
Description: DABF-AmB was tested, at a concentration of 1 μM, on various proteases (papain, chymotrypsin, kallicrein, leucocyte elastase, cathopsin D and recombinant protease p10) under conditions and in the presence of substrates appropriate for each of the proteases tested.

AZT-resistant strains = assay: Infection of PBMCs by AZT-resistant HIV-1; format: cell-based; settings: 10 μM, RT activity after 10 days
Description: PBMCs were infected under the conditions described above in the general procedures, with various HIV-1 isolates derived from patients, or identified as resistant to AZT. The anti-viral effect of DABF-AmB was determined by measuring the RT activity in the supernatants after 10 days of culture.

CEM cells = assay: Cell viability of CEM cells; format: cell-based, human; settings: concentrations above 100 μM
Text: Cell viability was estimated at the same time. […] It therefore appears that DABF-AmB inhibits the replication of HIV at doses which are not cytotoxic.

CD3 = assay: Membrane antigen CD3 in HIV-1 infected cells; format: cell-based, human; settings: treated or untreated infected cells
Description: (§1) Immunofluorescence analyses are carried out on the 8th day of the infection in order to verify whether the inhibition of HIV replication by DABF-AmB results in 10 a reduced membrane expression of viral antigens.

HRV14 = assay: Direct virucidal effect on HRV14 (preincubation of virus); format: cell-based; settings: HRV14 preincubated 5 hours at 37° C.
Description: When the suspension of HRV14 is preincubated at 37° C. in the presence of DABF-AmB for 5 hours, no inhibition of the cytopathogenic effect is observed compared with a control suspension incubated under the same conditions in the absence of DABF-AmB.

CD4 = assay: Membrane expression of CD4 in HIV-1 infected Jurkat and CEM cells; format: cell-based, human; settings: 10 μM continuous, 8th day
Description: Membrane expression of CD4 and gp120 is measured by means of the monoclonal antibodies OKT4 (0,5 μg/ml), 110-4 (2 μg/ml) respectively, which are stained using a […].
The fluorescence is measured by means of a FACSTAR cell counter (BECTON DICKINSON, MOUNTAIN VIEW, Calif.). The results are expressed as mean fluorescence intensity.
The CD4-specific monoclonal antibody (OKT4 was bought from ORTHO PHARMACEUTICAL CORPORATION (Raritan, N.J.).
as §1

## C[C@@H]1[C@H](O)[C@@H](C)/C=C/C=C/C=C/C=C/C=C/C=C/C=C/[C@H](O[C@@H]2O[C@H](C)[C@@H](O)[C@H](NCC(=O)[C@@H](O)[C@@H]3OC(c4ccccc4)OC[C@H]3O)[C@@H]2O)C[C@@H]2O[C@](O)(C[C@@H](O)C[C@@H](O)[C@H](O)CC[C@@H](O)C[C@@H](O)CC(=O)O[C@H]1C)C[C@H](O)[C@H]2C(=O)O (stereo partly drawn) [DABF-AmB, 1-deoxy-1-amino-4,6-O-benzylidene-D-fructosyl-AmB]
PBMCs
  cytotoxic effect on PBMCs: without cytotoxic effect
HIV (cellular viraemia); 8 different patients
  number of patients in which cellular viraemia is inhibited: 7 out of 8
HIV (cellular viraemia); Human immunodeficiency virus 1, Lymphocyte, read-out: IC50 (concentration inhibiting 50% of the p24 titer in the culture supernatants)
  IC50: 1000 to 5000 nM
HIV (cellular viraemia); patient SAM + MS, day 0
  cellular viraemia (p24): - (the amount of p24 detected is at least 95% less than the values obtained in the untreated control cultures)
HIV (cellular viraemia); patient SAM + MS, day 14
  cellular viraemia (p24): - (the amount of p24 detected is at least 95% less than the values obtained in the untreated control cultures)
HIV (cellular viraemia); patient five + MS, day 0
  cellular viraemia (p24): - (the amount of p24 detected is at least 95% less than the values obtained in the untreated control cultures)
HIV (cellular viraemia); patient five + MS, day 7
  cellular viraemia (p24): - (the amount of p24 detected is at least 95% less than the values obtained in the untreated control cultures)
HIV (cellular viraemia); patient four + MS, day 0
  cellular viraemia (p24): - (the amount of p24 detected is at least 95% less than the values obtained in the untreated control cultures)
HIV (cellular viraemia); patient four + MS, day 7
  cellular viraemia (p24): - (the amount of p24 detected is at least 95% less than the values obtained in the untreated control cultures)
HIV (cellular viraemia); patient four + MS, day 14
  cellular viraemia (p24): - (the amount of p24 detected is at least 95% less than the values obtained in the untreated control cultures)
HIV (cellular viraemia); patient four + MS, day 21
  cellular viraemia (p24): - (the amount of p24 detected is at least 95% less than the values obtained in the untreated control cultures)
HIV (cellular viraemia); patient four + MS, day 28
  cellular viraemia (p24): - (the amount of p24 detected is at least 95% less than the values obtained in the untreated control cultures)
HIV (cellular viraemia); patient one + MS, day 0
  cellular viraemia (p24): - (the amount of p24 detected is at least 95% less than the values obtained in the untreated control cultures)
HIV (cellular viraemia); patient one + MS, day 7
  cellular viraemia (p24): - (the amount of p24 detected is at least 95% less than the values obtained in the untreated control cultures)
HIV (cellular viraemia); patient seven + MS, day 0
  cellular viraemia (p24): - (the amount of p24 detected is at least 95% less than the values obtained in the untreated control cultures)
HIV (cellular viraemia); patient seven + MS, day 14
  cellular viraemia (p24): - (the amount of p24 detected is at least 95% less than the values obtained in the untreated control cultures)
HIV (cellular viraemia); patient six + MS, day 0
  cellular viraemia (p24): - (the amount of p24 detected is at least 95% less than the values obtained in the untreated control cultures)
HIV (cellular viraemia); patient six + MS, day 14
  cellular viraemia (p24): - (the amount of p24 detected is at least 95% less than the values obtained in the untreated control cultures)
HIV (cellular viraemia); patient three + MS, day 0
  cellular viraemia (p24): - (the amount of p24 detected is at least 95% less than the values obtained in the untreated control cultures)
HIV (cellular viraemia); patient three + MS, day 7
  cellular viraemia (p24): - (the amount of p24 detected is at least 95% less than the values obtained in the untreated control cultures)
HIV (cellular viraemia); patient three + MS, day 14
  cellular viraemia (p24): - (the amount of p24 detected is at least 95% less than the values obtained in the untreated control cultures)
HIV (cellular viraemia); patient three + MS, day 21
  cellular viraemia (p24): - (the amount of p24 detected is at least 95% less than the values obtained in the untreated control cultures)
HIV (cellular viraemia); patient three + MS, day 28
  cellular viraemia (p24): - (the amount of p24 detected is at least 95% less than the values obtained in the untreated control cultures)
HIV (cellular viraemia); patient two + MS, day 0
  cellular viraemia (p24): - (the amount of p24 detected is at least 95% less than the values obtained in the untreated control cultures)
HIV (cellular viraemia); patient two + MS, day 7
  cellular viraemia (p24): - (the amount of p24 detected is at least 95% less than the values obtained in the untreated control cultures)
HIV (cellular viraemia); patient two + MS, day 14
  cellular viraemia (p24): - (the amount of p24 detected is at least 95% less than the values obtained in the untreated control cultures)
HIV (cellular viraemia); patient two + MS, day 21
  cellular viraemia (p24): - (the amount of p24 detected is at least 95% less than the values obtained in the untreated control cultures)
HIV (cellular viraemia); patient two + MS, day 28
  cellular viraemia (p24): - (the amount of p24 detected is at least 95% less than the values obtained in the untreated control cultures)
Viral antigen p24
  inhibition at 10 µM: 88 ± 6%
HeLa-Ohio cells
  cytotoxic effect: no cytotoxic effect
kallicrein
  inhibition of kallicrein: inhibits
AZT-resistant strains
  inhibition of infection of PBMC: this inhibition is also produced in the case of AZT-resistant strains
CEM cells
  cytotoxic effect: no cytotoxic effect
CD3
  level of the membrane antigen CD3: unchanged
HRV14
  inhibition of the cytopathogenic effect after preincubation of virus (direct virucidal effect): no direct virucidal effect
CD4
  level of the membrane antigen CD4: increases until it reaches that for the uninfected cells
